Columns and labels:
KRas G12D [1] = molecular target: T1, KRas G12D (Homo sapiens, UniProt P01116, G12D); test: KRas G12D Binding Assay (TR-FRET displacement of labeled tracer); design: corresponding to amino acids 1:169, produced at Array BioPharma; biotin (protein is biotinylated); conditions: TR-FRET displacement of Cy5 labelled tracer, biotinylated GDP-loaded KRAS G12D (aa 1:169), 60 minute incubation at 22° C.
Procedure, shortened: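 Biotinylated GDP-loaded human KRAS G12D (aa 1–169) incubated with Cy5 tracer, Eu-streptavidin and compound (2% DMSO final) in 50 mM HEPES pH 7.5, 5 mM MgCl2, 0.005% Tween-20, 1 mM DTT, 60 min at 22 °C. TR-FRET ratio converted to percent of control; IC50 at 50 POC from 4-parameter logistic fit.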
Target sequence in this assay (P01116 1-169 isoform P01116-2 G12D): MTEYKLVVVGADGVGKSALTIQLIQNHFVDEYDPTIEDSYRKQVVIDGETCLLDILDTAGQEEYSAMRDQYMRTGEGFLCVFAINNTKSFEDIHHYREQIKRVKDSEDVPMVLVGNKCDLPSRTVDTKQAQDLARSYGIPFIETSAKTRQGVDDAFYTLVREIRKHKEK

[2] = tested on: KRas G12D-mediated Phosphorylation of ERK; test: Inhibition of KRas G12D-mediated Phosphorylation of ERK in AGS cells; format: cell-based; conditions: Homo sapiens; AGS cells expressing G12D, 3 hours, phospho-ERK normalized to GAPDH
Procedure, shortened: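 AGS cells (endogenous KRas G12D) were treated with compounds for 3 h in 0.5% DMSO, then fixed, permeabilized and immunostained. The phospho-ERK (Thr202/Tyr204) signal was normalized to GAPDH in-cell by infrared detection and expressed as % of DMSO control. IC50 came from a 4-parameter fit.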

KRas G12D [3] = molecular target: T1, KRas G12D; test: KRas G12D Surface Plasmon Resonance (SPR) Binding Assay; conditions: Biacore T200, biotinylated Avidin-tagged KRAS protein on SA chip, 20 C, 1:1 binding model
Procedure, shortened: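 Biotinylated Avi-tagged KRAS G12D was captured on a streptavidin chip; compounds were injected as 3-fold dilution series in HBS-Mg buffer, pH 7.5, with DMSO at 20 C (60 s contact, 120 s dissociation). Binding constants came from 1:1 model fits.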
Target sequence in this assay (P01116 1-188 isoform P01116-2 G12D): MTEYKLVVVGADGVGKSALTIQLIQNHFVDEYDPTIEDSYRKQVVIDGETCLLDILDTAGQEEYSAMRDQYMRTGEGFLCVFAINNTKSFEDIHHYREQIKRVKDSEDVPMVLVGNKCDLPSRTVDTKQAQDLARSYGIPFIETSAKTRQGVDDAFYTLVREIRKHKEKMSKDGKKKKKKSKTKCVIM

Row | Structure (SMILES) | IC50 (KRas G12D [1]) [nM] | IC50 [2] [nM] | Kd (KRas G12D [3]) [nM]
1 | Oc1cc(N2CCc3c(nc(OC[C@@H]4CCCN4)nc3N3C[C@H]4CC[C@@H](C3)N4)C2)c2ccccc2c1Cl [Example 27, 4-(4-((1R,5S)-3,8-diazabicyclo[3.2.1]octan-3-yl)-2-(((S)-pyrrolidin-2-yl)methoxy)-5,8-dihydropyrido[3,4-d]pyrimidin-7(6H)-yl)-1-chloronaphthalen-2-ol] | 1600 | 11100 | 91.3
2 | CN1CCC[C@H]1COc1nc2c(c(N3C[C@@H]4C[C@@H](O)[C@H](C3)N4)n1)CCN(c1cccc3cccc(Cl)c13)C2 [Example 95, (1S,5S,6R)-3-(7-(8-chloronaphthalen-1-yl)-2-(((S)-1-methylpyrrolidin-2-yl)methoxy)-5,6,7,8-tetrahydropyrido[3,4-d]pyrimidin-4-yl)-3,8-diazabicyclo[3.2.1]octan-6-ol] | 50.6 | > 16700 | 58.3
3 | CN1CCC[C@H]1COc1nc2c(c(N3C[C@H]4CC[C@@H](C3)N4)n1)CCN(c1cccc3ccc(F)cc13)C2 [Example 72, 4-((1R,5S)-3,8-diazabicyclo[3.2.1]octan-3-yl)-7-(7-fluoronaphthalen-1-yl)-2-(((S)-1-methylpyrrolidin-2-yl)methoxy)-5,6,7,8-tetrahydropyrido[3,4-d]pyrimidine] | 226 | > 16700 | 923
4 | CO[C@@H]1C[C@@H]2CN(c3nc(OCC45CCCN4CC(F)C5)nc4c3CCN(c3cccc5cccc(Cl)c35)C4)C[C@H]1N2 (mixture of isomers) [Example 43, 7-(8-chloronaphthalen-1-yl)-2-((2-fluorotetrahydro-1H-pyrrolizin-7a(5H)-yl)methoxy)-4-((1R,5R,6R)-6-methoxy-3,8-diazabicyclo[3.2.1]octan-3-yl)-5,6,7,8-tetrahydropyrido[3,4-d]pyrimidine] | 90.1 | > 16700 | 57.6
5 | CN1CCC[C@H]1COc1nc2c(c(N3C[C@H]4CC[C@@H](C3)N4)n1)CCN(c1cccc3cccc(Cl)c13)C2 [Example 2, 4-((1R,5S)-3,8-diazabicyclo[3.2.1]octan-3-yl)-7-(8-chloronaphthalen-1-yl)-2-(((S)-1-methylpyrrolidin-2-yl)methoxy)-5,6,7,8-tetrahydropyrido[3,4-d]pyrimidine] | 267 | 16100 | 163
6 | FC(F)(F)c1c(Cl)cccc1N1CCc2c(nc(OCC34CCCN3CCC4)nc2N2C[C@H]3CC[C@@H](C2)N3)C1 [Example 63, 4-((1R,5S)-3,8-diazabicyclo[3.2.1]octan-3-yl)-7-(3-chloro-2-(trifluoromethyl)phenyl)-2-((tetrahydro-1H-pyrrolizin-7a(5H)-yl)methoxy)-5,6,7,8-tetrahydropyrido[3,4-d]pyrimidine] | 5.1 | 6580 | 12.3
7 | CN1CCC[C@H]1COc1nc2c(c(N3C[C@H]4CC[C@@H](C3)N4)n1)CCN(c1cc(O)cc3ccccc13)C2 [Example 1, 4-(4-((1R,5S)-3,8-diazabicyclo[3.2.1]octan-3-yl)-2-(((S)-1-methylpyrrolidin-2-yl)methoxy)-5,8-dihydropyrido[3,4-d]pyrimidin-7(6H)-yl)naphthalen-2-ol] | 48.9 | 2350 | 110
8 | CN1CCC[C@H]1COc1nc2c(c(N3C[C@H]4CC[C@@H](C3)N4)n1)CCN(c1cc(O)c(Br)c3ccccc13)C2 [Example 109, 4-(4-((1R,5S)-3,8-diazabicyclo[3.2.1]octan-3-yl)-2-(((S)-1-methylpyrrolidin-2-yl)methoxy)-5,8-dihydropyrido[3,4-d]pyrimidin-7(6H)-yl)-1-bromonaphthalen-2-ol] | 5.5 | 663 | 20.8
9 | Clc1cccc2cncc(N3CCc4c(nc(OCC56CCCN5CCC6)nc4N4C[C@H]5CC[C@@H](C4)N5)C3)c12 [Example 30, 4-((1R,5S)-3,8-diazabicyclo[3.2.1]octan-3-yl)-7-(5-chloroisoquinolin-4-yl)-2-((tetrahydro-1H-pyrrolizin-7a(5H)-yl)methoxy)-5,6,7,8-tetrahydropyrido[3,4-d]pyrimidine] | 16.8 | 2610 | 87.1
10 | CO[C@@H]1C[C@@H]2CN(c3nc(OC[C@@H]4CCCN4C)nc4c3CCN(c3cc(O)cc5ccccc35)C4)C[C@H]1N2 [Example 37, 4-(4-((1R,5R,6R)-6-methoxy-3,8-diazabicyclo[3.2.1]octan-3-yl)-2-(((S)-1-methylpyrrolidin-2-yl)methoxy)-5,8-dihydropyrido[3,4-d]pyrimidin-7(6H)-yl)naphthalen-2-ol] | 88.1 | 3850 | 12800
11 | Cc1cccc2cccc(N3CCc4c(nc(OC[C@@H]5CCCN5C)nc4N4C[C@H]5CC[C@@H](C4)N5)C3)c12 [Example 52, 4-((1R,5S)-3,8-diazabicyclo[3.2.1]octan-3-yl)-7-(8-methylnaphthalen-1-yl)-2-(((S)-1-methylpyrrolidin-2-yl)methoxy)-5,6,7,8-tetrahydropyrido[3,4-d]pyrimidine] | 361 | 14900 | 250000
12 | Clc1cccc2cccc(N3CCc4c(nc(OCC56CCCN5CCC6)nc4N4C[C@H]5CC[C@@H](C4)N5)C3)c12 [Example 29, 4-((1R,5S)-3,8-diazabicyclo[3.2.1]octan-3-yl)-7-(8-chloronaphthalen-1-yl)-2-((tetrahydro-1H-pyrrolizin-7a(5H)-yl)methoxy)-5,6,7,8-tetrahydropyrido[3,4-d]pyrimidine] | 2.5 | 4050 | 6.3
13 | CN1CCC[C@H]1COc1nc2c(c(N3C[C@H]4CC[C@@H](C3)N4)n1)CCN(c1cc(O)c(Cl)c3ccccc13)C2 [Example 24, 4-(4-((1R,5S)-3,8-diazabicyclo[3.2.1]octan-3-yl)-2-(((S)-1-methylpyrrolidin-2-yl)methoxy)-5,8-dihydropyrido[3,4-d]pyrimidin-7(6H)-yl)-1-chloronaphthalen-2-ol] | 1360 | > 16700 | 37.7
14 | CN1CCC[C@H]1COc1nc2c(c(N3CC4CC(F)C(C3)N4)n1)CCN(c1cc(O)cc3ccccc13)C2 (stereo partly drawn) [Example 38, 4-(4-(6-fluoro-3,8-diazabicyclo[3.2.1]octan-3-yl)-2-(((S)-1-methylpyrrolidin-2-yl)methoxy)-5,8-dihydropyrido[3,4-d]pyrimidin-7(6H)-yl)naphthalen-2-ol] | 73.5 | 5000 | 2340
15 | O[C@@H]1C[C@@H]2CN(c3nc(OCC45CCCN4CC(F)C5)nc4c3CCN(c3cccc5cccc(Cl)c35)C4)C[C@H]1N2 (mixture of isomers) [Example 45, (1R,5R,6R)-3-(7-(8-chloronaphthalen-1-yl)-2-((2-fluorotetrahydro-1H-pyrrolizin-7a(5H)-yl)methoxy)-5,6,7,8-tetrahydropyrido[3,4-d]pyrimidin-4-yl)-3,8-diazabicyclo[3.2.1]octan-6-ol] | 2.6 | 1360 | 1.9
16 | CN1CCC[C@H]1COc1nc2c(c(N3C[C@H]4C[C@@H](CC#N)[C@@H](C3)N4)n1)CCN(c1cccc3cccc(Cl)c13)C2 [Example 40, 2-((1R,5S,6S)-3-(7-(8-chloronaphthalen-1-yl)-2-(((S)-1-methylpyrrolidin-2-yl)methoxy)-5,6,7,8-tetrahydropyrido[3,4-d]pyrimidin-4-yl)-3,8-diazabicyclo[3.2.1]octan-6-yl)acetonitrile] | 63.9 | > 16700 | 957
17 | CN1CCC[C@H]1COc1nc2c(c(N3C[C@@H]4C[C@H](O)[C@H](C3)N4)n1)CCN(c1cc(O)cc3ccccc13)C2 (single isomer, unassigned) [Example 55] | 775 | 4880 | 38700
18 | CN1CCC[C@H]1COc1nc2c(c(N3C[C@H]4CC[C@@H](C3)N4)n1)CCN(c1c(F)cccc1C(F)(F)F)C2 [Example 75, 4-((1R,5S)-3,8-diazabicyclo[3.2.1]octan-3-yl)-7-(2-fluoro-6-(trifluoromethyl)phenyl)-2-(((S)-1-methylpyrrolidin-2-yl)methoxy)-5,6,7,8-tetrahydropyrido[3,4-d]pyrimidine] | > 10000 | > 16700 | 170000
19 | CN1CCC[C@H]1COc1nc2c(c(N3C[C@H]4CC[C@@H](C3)N4)n1)CCN(c1cccc3ccc(F)c(Cl)c13)C2 [Example 65, 4-((1R,5S)-3,8-diazabicyclo[3.2.1]octan-3-yl)-7-(8-chloro-7-fluoronaphthalen-1-yl)-2-(((S)-1-methylpyrrolidin-2-yl)methoxy)-5,6,7,8-tetrahydropyrido[3,4-d]pyrimidine] | 15.2 | > 16700 | 18.2
20 | CN1CCC[C@H]1COc1nc2c(c(N3CC4CC(O)C(C3)N4)n1)CCN(c1cc(O)cc3ccccc13)C2 (mixture of isomers) [Example 4, 3-(7-(3-hydroxynaphthalen-1-yl)-2-(((S)-1-methylpyrrolidin-2-yl)methoxy)-5,6,7,8-tetrahydropyrido[3,4-d]pyrimidin-4-yl)-3,8-diazabicyclo[3.2.1]octan-6-ol] | 3.7 | 994 | 1.5

— US12686692B2, “KRas G12D inhibitors” (Mirati Therapeutics, Inc., priority 2020, dated 2026)
